In paper PMC9276676, “Difluoromethylornithine (DFMO) and AMXT 1501 inhibit capsule biosynthesis in pneumococci” (Scientific Reports, 2022):
Converted amounts (≈) assume the structure as drawn. Like-named read-outs stand apart in the source and are kept apart here.

How the values were obtained:
[1] = target: T1, SP_0916 (arginine decarboxylase, ADC) (Streptococcus pneumoniae, UniProt A0A0H2UPK4); details: Km of the enzyme for the decarboxylase substrate; rows named by product; previously reported ref 18; cited from earlier work
T1 sequence (A0A0H2UPK4 entry or part of it): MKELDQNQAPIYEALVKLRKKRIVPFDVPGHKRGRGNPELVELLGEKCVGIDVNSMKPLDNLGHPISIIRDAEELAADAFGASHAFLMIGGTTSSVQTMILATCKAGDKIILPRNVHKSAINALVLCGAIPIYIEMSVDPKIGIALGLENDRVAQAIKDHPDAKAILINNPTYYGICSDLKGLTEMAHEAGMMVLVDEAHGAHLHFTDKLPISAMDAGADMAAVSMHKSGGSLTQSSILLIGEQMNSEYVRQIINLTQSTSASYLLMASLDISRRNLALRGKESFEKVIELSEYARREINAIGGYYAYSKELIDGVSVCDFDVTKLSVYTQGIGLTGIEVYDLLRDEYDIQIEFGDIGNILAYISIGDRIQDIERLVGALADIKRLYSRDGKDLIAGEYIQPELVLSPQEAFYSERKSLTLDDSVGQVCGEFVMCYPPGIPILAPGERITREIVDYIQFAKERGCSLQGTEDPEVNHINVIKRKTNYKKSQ

[2] = tested on: S. pneumoniae serotype 2 (D39); assay: DFMO susceptibility and growth in THY (OD600, MIC); type: cell-based, Streptococcus pneumoniae; details: Streptococcus pneumoniae
Description: S. pneumoniae serotypes 4 (TIGR4), 2 (D39), 19F (EF3030) and 3 (WU2) were cultured in Todd Hewitt broth supplemented with yeast extract (THY). Supplementation with DFMO ranging from 1.1 to 549 mM was carried out in triplicate in a 96-well plate and incubated at 37 °C and 5% CO2 in a Cytation™ 5 cell imaging multi-mode reader (BioTek, Winooski, VT). The change in optical density at 600 nm (OD600) was measured every hour for 24 h and used to determine the minimum inhibitory concentration (MIC) of DFMO. The optical density data was analyzed using GrowthRates 4.0 software. To determine whether DFMO at sub-MIC is bacteriostatic or lethal to pneumococcal cells, all strains were cultured in the presence or absence of 1/2 MIC DFMO. OD600 was measured every hour and CFU were enumerated on a blood agar plate (BAP) every 2 h over an 8 h incubation period.

D39 (serotype 2) capsule = assay: Total capsular polysaccharide (CPS) immunoblot with densitometry; type: cell-based, Streptococcus pneumoniae; details: D39; for total CPS (capsule) by immunoblot: DFMO 1/8 MIC 34 mM, agmatine 1/4 MIC 20 mM, AMXT 1501 1/2 MIC 7.4 µM, alone or with agmatine
Description: (§1) S. pneumoniae strains were cultured with DFMO and AMXT 1501 at varying final concentrations of 1/2, 1/4, and 1/8 MIC to OD600 0.2–0.3 either individually or together to estimate any additive or synergistic effects. Capsular polysaccharides (CPS) were extracted and quantified in triplicate, as described previously[26] with slight modification. Briefly, CPS was extracted in a lysis buffer (4% deoxycholate, 50 µg/mL DNAse I and 50 µg/mL RNAse A) at 37 °C for 10 min and centrifuged at 18,000×g for 10 min. The supernatant (2 µL) was spotted on a 0.2-µm-pore-size nitrocellulose membrane (Thermo Fisher Scientific, Waltham, MA, USA) and oven dried at 60 °C for 15 min. The membranes were blocked and incubated with different types of antisera for capsule detection: antisera type- 4 (for TIGR4), 2 (for D39), polyclonal (for EF3030) and 3 (for WU2) (Cedarlane, Burlington, NC, USA). A conjugated polyclonal goat anti-rabbit IgG-HRP (Agilent Technologies, Santa Clara, CA, USA) was used for enhanced chemiluminescence (ECL) detection in all the strains (Thermo Fisher Scientific, Waltham, MA, USA) and scanned using a ChemiDoc XRS+ with Image Lab software (Bio-Rad, Hercules, CA, USA). Densitometry analysis of the immunoblot was done with NIH ImageJ software.
(§2) We determined the impact of varying concentrations of DFMO (1/8 to 1/2 MIC) on CPS in all serotypes (2, 4, 19F, and 3) used in this study. […] D39 was treated with 1/8 MIC DFMO alone, 1/4 MIC agmatine (Agm) alone, a combination of 1/8 MIC DFMO and 1/4 MIC Agm, and a control without DFMO or Agm. CPS was extracted as described in the previous section and immunoblot analysis with type 2 antisera was performed to detect CPS semi-quantitatively.

[3] = tested on: EF3030 (serotype 19F) capsule; assay: as above; type: cell-based, Streptococcus pneumoniae; details: serotype 19F; AMXT 1501 at 1/2 MIC
Description: as §1, §2

[4] = tested on: TIGR4 (serotype 4) capsule; assay: as above; type: cell-based, Streptococcus pneumoniae; details: serotype 4; AMXT 1501 at 1/2 MIC
Description: as §1, §2

WU2 (serotype 3) capsule = assay: as above; type: cell-based, Streptococcus pneumoniae; details: serotype 3; AMXT 1501 at 1/2 MIC
Description: as §1, §2

S. pneumoniae D39 = type: cell-based, Streptococcus pneumoniae
Description: This was done to directly compare possible changes in intracellular concentrations of polyamines and capsule precursors as a result of DFMO inhibition of polyamine synthesis to the earlier report where polyamine synthesis was affected via gene deletion in TIGR4[24]. […] Cells were harvested (5000×g, 10 min, 4 °C), re-suspended in extraction solvent [40% acetonitrile, 40% methanol, 20% water with formic acid (0.1 M)] and transferred to bead-beater tubes (MP Biomedicals, Irvine, CA, USA). Cells were lysed using a FastPrep-24™ Classic (45 s, 6.5 m/s, RT, 3 times) (MP Biomedicals, Irvine, CA, USA) and incubated on ice (5 min after each spin). TIGR4 lysates were clarified (6000×g, 5 min, 4 °C), and metabolite differentiation and detection were performed using published protocols[28],[29]. Liquid chromatography-mass spectrometry-based (LC–MS) metabolomic analysis was performed with an Agilent Accurate Mass 6230 TOF coupled with an Agilent 1290 LC system using a Cogent Diamond Hydride Type C column. Briefly, the mobile phase consisted of the following: solvent A (ddH2O with 0.2% formic acid) and solvent B (acetonitrile with 0.2% formic acid). The gradient used was as follows: 0–2 min, 85% B; 3–5 min, 80% B; 6–7 min, 75% B; 8–9 min, 70% B; 10–11.1 min, 50% B; 11.1–14 min 20% B; 14.1–24 min 5% B followed by a 10 min re-equilibration period at 85% B at a flow rate of 0.4 mL/min. Mass axis dynamics was calibrated by continuous infusion of a reference mass solution using an isocratic pump. […] Metabolite identities were searched for using a mass tolerance of < 0.005 Da. Metabolite concentrations from the 5 biological replicates were normalized to biomass based on measurement of residual peptide content in individual samples using the Pierce BCA Protein Assay kit (Thermo Fisher Scientific, Waltham, MA, USA). Data were analyzed using Profinder B.07.00 software (Agilent Technologies, Santa Clara, CA, USA). Extracted molecular features detected in the mass analyzer were identified using accurate mass values and used to generate empirical molecular formulae using an in-house metabolite database that included known intermediates, amino acid precursors and polyamines and their derivatives. Statistical analysis of metabolite peak intensity data was performed using MetaboAnalyst 4.0[30]. Data were normalized (quantile), log transformed and significant fold change between WT and DFMO-treated WT were identified by Student’s t-test (p ≤ 0.05).
To measure the polyamines, glucose and glucuronic acid in D39, TSQ Quantum Access triple-quadrupole tandem mass spectrometer (Thermo Fisher Scientific, Waltham, MA, USA) equipped with acquity UPLC system (Waters, Milford, MA, USA) was operated in positive and negative ion mode. Chromatographic separation was performed on Cogent Diamond Hydride HPLC column (2.1 mm × 150 mm, 4 μm) coupled with Congent Diamond Hydride HPLC Guard column (2.0 mm × 10 mm, 4 μm). The flow rate was 500 µL/min, the sample injection volume was 10 µL, and the column temperature was at 40 °C. The mobile phase A was composed of water with 0.1% v/v formic acid, and mobile phase B was composed of acetonitrile with 0.1% v/v formic acid. The gradient condition was 0 min (5% A, 95% B), 1 min (5% A, 95% B), 4.0 min (30% A, 70% B), 6 min (95% A, 5% B), 6.5 min (95% A, 5% B), 7 min (5% A, 95% B), and 10 min (5% A, 95%B). The total run time was 10 min, and the column eluate directed into the mass spectrometer using an electrospray ionization interface in positive and negative modes. The MS conditions were set as follow: spray voltage = 3500 V, vaporizer temperature = 350 °C, sheath gas = 25 psi, auxiliary gas = 10 psi, and capillary temperature = 350 °C. Samples were run in selected reaction monitoring (SRM) mode, and the optimized MS/MS parameters for ionization are given in Table 1.

[5] = target: T1, SP_0916 (arginine decarboxylase, ADC); assay: Inhibition of decarboxylase activities of recombinant SP_0916 (LC-MS); type: biochemical; details: read-out: DFMA IC50
Description: We determined the impact of DFMO (ODC/ADC inhibitor) and α-difluoromethylarginine (DFMA, an ADC inhibitor) on the decarboxylase activities of SP_0916. BL21(DE3) cells expressing recombinant His tag SP_0916 were lysed with B-PER reagent buffer (Thermo Fisher Scientific, Waltham, MA, USA), lysate separated by loading unto HisPur Cobalt Spin Column (Thermo Fisher Scientific, Waltham, MA, USA), desalted using Sephadex G-25 PD-10 column (GE Healthcare, Chicago, IL, USA), and protein concentration estimated using the Pierce BCA Protein Assay kit (Thermo Fisher Scientific, Waltham, MA, USA).
SP_0916-encoded protein (0.926 µmol L^−1) was mixed with 10 mM substrate (arginine, lysine or ornithine) in the reaction mixture (500 µL reaction volume, 50 mM Tris–HCl, pH 8.0) that contains 2.5 mM MgSO4 and 0.6 mM PLP. DFMO was diluted in water to 3–900 mM and added to the reaction mixture after 5 min preincubation at 37 °C in the dark. DFMA stock was made in a similar manner but was diluted in water to 0.3–1000 µM. The enzyme and inhibitor were incubated at 37 °C for 15 min in the dark and the reaction terminated with 0.3 M perchloric acid. After incubation on ice for 15 min, the samples were neutralized with 25 µL of 10 N KOH and extracted with 1 mL of 1-butanol. The organic layer was dried under nitrogen gas and reconstituted with 100 µL of water containing Spermidine-d8 and Glucose-d7 as an internal standard. Analysis of the extracts was performed on a Surveyor LC–MS system. 5 µL of reconstitution was injected to the LC–MS system for detection of the products (agmatine, cadaverine or putrescine). We used internal standards to normalize and determine the peak intensity (area ratio) for each metabolite detected. Enzyme activity without inhibitor is referred to as a control activity. All experiments were performed in triplicate. The concentration of inhibitor that inhibited 50% of the control activity (IC50 value) was determined by varying the concentration of the indicated DFMO or DFMA and measuring the decarboxylase activity. Sigma Plot v. 12 was used to fit the curve through the points and IC50 values were interpolated from the fitted curve.

[6] = DFMO 34 mM, agmatine 20 mM, AMXT 1501 7.4 µM, p-value in bracket omitted

Structure (SMILES)	Km [1] [µM]	total CPS (capsule) by immunoblot (D39 (serotype 2) capsule)	Agmatine, fold change treated D39 /D39 (S. pneumoniae D39; [6])	Cadaverine, fold change treated D39 /D39 (S. pneumoniae D39; [6])	Lysine, fold change treated D39 /D39 (S. pneumoniae D39; [6])	N-acetyl spermidine, fold change treated D39 /D39 (S. pneumoniae D39; [6])	N-carbamoyl putrescine, fold change treated D39 /D39 (S. pneumoniae D39; [6])	Ornithine, fold change treated D39 /D39 (S. pneumoniae D39; [6])	Putrescine, fold change treated D39 /D39 (S. pneumoniae D39; [6])	Spermidine, fold change treated D39 /D39 (S. pneumoniae D39; [6])	Spermine, fold change treated D39 /D39 (S. pneumoniae D39; [6])	other results
NCCCCN [Putrescine, putrescine]	3550 ± 280	–	–	–	–	–	–	–	–	–	–	–
CCCCCCCCCCCCCCCC(=O)NCCCC[C@@H](N)C(=O)NCCCNCCCCNCCCN [AMXT 1501]	–	Loss of capsule	-1.5 (0.006)	-1.2 (4.61E-04)	-0.5 (3.48E-04)	-1.6 (0.022)	-1.8 (0.016)	-0.5 (0.004)	-1.4 (0.001)	-5.5 (0.006)	-0.3 (0.455)	MIC ([2]; read-out: 1/2 MIC): 7.4 µM (≈ 4.21 µg/mL); less capsule compared to untreated controls (densitometry of immunoblots) (D39 (serotype 2) capsule; 1/2 MIC AMXT 1501 (7.4 µM)): 61%; impact on CPS [3]: had no impact on CPS; impact on CPS [4]: had no impact on CPS; impact on CPS (WU2 (serotype 3) capsule): had no impact on CPS; intracellular glucose (peak intensity) (S. pneumoniae D39; 1/8 MIC DFMO (34 mM), 1/2 MIC AMXT 1501 (7.4 µM)): increases glucose level; intracellular glucuronic acid (peak intensity) (S. pneumoniae D39; 1/8 MIC DFMO (34 mM), 1/2 MIC AMXT 1501 (7.4 µM), separately or in combination): significantly depleted; Arginine, fold change treated D39 /D39 (S. pneumoniae D39; [6]): -0.1 (0.546)
N=C(N)NCCC[C@](N)(C(=O)O)C(F)F [DFMA, α-difluoromethylarginine]	–	–	–	–	–	–	–	–	–	–	–	IC50 ([5]; arginine to agmatine, 10 mM substrate, 15 min, 37 °C): 1.1 ± 0.1 µM; IC50 ([5]; lysine to cadaverine, 10 mM substrate, 15 min, 37 °C): 56.6 ± 11.9 µM; IC50 [5]: 40.5 ± 11.6 µM
NCCCCCN [Cadaverine, cadaverine]	1610 ± 280	–	–	–	–	–	–	–	–	–	–	–
NCCCCN=C(N)N [Agmatine, agmatine]	110 ± 20	does not impact the capsule	10.2 (1.61E-06)	-0.3 (0.204)	0.1 (0.048)	0.8 (0.009)	9.6 (1.58E-05)	0.1 (0.149)	3.3 (0.004)	0.6 (0.283)	1.4 (3.30E-04)	MIC ([2]; D39, concentration equal to a quarter of the MIC, read-out: 1/4 MIC): 20000 µM (≈ 2600 µg/mL)
